Measurements reported in patent publication US5650428A, “Arylsulfonamide derivative and pharmaceutical compositions and use thereof” (NKK Corporation, priority 1993, dated 1997).

Assays:
[1] = target: T1, thromboxane A2 (TxA2) receptor (Cavia porcellus, UniProt A0A286Y4I8); test: TxA2 antagonist action by binding assay; conditions: washed guinea pig platelets, 1 nM [3H]-SQ29,548, 45 minutes at 25° C.
T1 construct: to obtain washed platelets; from tissue; host or cells: washed platelets of male Hartley guinea pigs
T1 sequence (A0A286Y4I8 1-347): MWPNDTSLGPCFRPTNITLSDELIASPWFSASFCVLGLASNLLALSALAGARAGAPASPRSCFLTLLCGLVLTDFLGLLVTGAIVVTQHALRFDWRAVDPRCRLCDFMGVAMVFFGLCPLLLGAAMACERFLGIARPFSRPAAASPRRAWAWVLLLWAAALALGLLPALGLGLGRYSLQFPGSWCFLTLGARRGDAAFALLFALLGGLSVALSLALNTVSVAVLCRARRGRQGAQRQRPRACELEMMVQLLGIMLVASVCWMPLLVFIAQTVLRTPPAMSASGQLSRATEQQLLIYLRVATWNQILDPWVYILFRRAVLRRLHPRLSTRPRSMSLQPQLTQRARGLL
Experimental: (1) TxA2 antagonist action by binding assay Guinea pigs (Hartley; male; body weight=approximately 500 g) were anesthetized with ether, and the blood was collected into sodium citrate (final concentration=0.38%). The preparation of platelets was carried out at room temperature. The platelet rich plasma was obtained by centrifugation at 980 rpm for 10 minutes. One tenth (1/10) amount of 77 mM-EDTA-Na (pH 7.4) was added to the platelet rich plasma, and the mixture was centrifuged for 10 minutes at 3000 rpm. The suspension was again centrifuged at 3000 rpm for 10 minutes. The precipitate was further resuspended in a suspension buffer (2) shown in Table 2 to obtain washed platelets. The number of platelets was counted by an automatic blood cell counter (Sysmex Microcellcounter F-800) and the sample was diluted with the suspension buffer to 4×10^8 cells/ml. The platelets, sample solution and labeled compounds were placed into plastic tubes in amounts (volumes) shown in the following Table 3, incubated for 45 minutes at 25° C., and then the mixture was filtered using a cell harvester (Brandel cell harvester M-24R) by a glass fiber filter (Whatman GF/B). After the filter was sufficiently dried, the scintillation was counted by a scintillation counter (Beckman LS5000TD). IC50 was calculated from (binding)/(control binding) ratio in the presence of an antagonist. [table 3: the next 10 blocks are its lines as printed, fixed-width]

rat platelet = test: Inhibitory activity of aggregation in rat platelet; assay type: cell-based; conditions: rat platelet rich plasma, arachidonic acid (final concentration 0.5 mM) as inducer; read-out: C: Inhibitory activity of aggregation in rat platelet (IC50; μM)
Experimental: (3) Inhibitory Activity of Aggregation in Rat Platelet The abdomen of etherized rat was open, and blood was taken from the abdominal arteries, using a sodium citrate solution (final concentration was 0.38%). The blood was centrifuged at 1100 rpm for 10 minutes, and the supernatent was separated as the platelet rich plasma. The plasma was further centrifuged at 2000 rpm for 15 minutes to obtain the supernatent as a platelet poor plasma. The platelet rich plasma (280 μl) was placed in a measuring cuvette and preincubated for 1 minute at 37° C. Then, a sample solution (10 μl) was added. After 2 minutes, an arachidonic acid solution (final concentration=0.5 mM) (10 μl) was added as an inducer. The change in light transmission was recorded for 5 minutes.

IC50 [1] [µM] | IC50 (rat platelet) [µM] | SMILES
0.099 | 0.17 | CSCC[C@H](NS(=O)(=O)c1ccc(Br)cc1)C(=O)Nc1ccc(CCC(=O)O)cc1 [Example 240, (S)-2-(4-bromobenzenesulfonylamino)-N-(4-(2-carboxyethyl)phenyl)-4-methylthiobutanamide]
0.072 | 1.7 | O=C(O)Cc1ccc(NC(=O)C(CCc2ccccc2)NS(=O)(=O)c2ccc(Cl)cc2)cc1 (racemic) [Example 172, (RS)-N-(4-(carboxymethyl)phenyl)-2-(4-chlorobenzenesulfonylamino)-4-phenylbutanamide]
0.047 | 1.7 | O=C(O)Cc1ccc(NC(=O)C(COc2cccc(Cl)c2)NS(=O)(=O)c2ccc(Cl)cc2)cc1 (racemic) [Example 131, (RS)-N-(4-(carboxymethyl)phenyl)-2-(4-chlorobenzenesulfonylamino)-3-(3-chlorophenoxy)propanamide]
1 | 1.75 | O=C(O)CCCCCCNC(=O)C(COC1CCCCO1)NS(=O)(=O)c1ccc(Cl)cc1 (racemic) [Example 50, (RS)-N-(6-carboxyhexyl)-2-(4-chlorobenzenesulfonylamino)-3-(tetrahydropyran-2-yloxy)propanamide]
0.074 | 1.7 | O=C(O)Cc1ccc(NC(=O)C(COc2ccccc2Cl)NS(=O)(=O)c2ccc(I)cc2)cc1 (racemic) [Example 152, (RS)-N-(4-(carboxymethyl)phenyl)-3-(2-chlorophenoxy)-2-(4-iodobenzenesulfonylamino)propanamide]
0.024 | 0.53 | O=C(O)Cc1ccc(NC(=O)C(COc2ccccc2)NS(=O)(=O)c2ccc(Br)cc2)cc1 (racemic) [Example 142, (RS)-2-(4-bromobenzenesulfonylamino)-N-(4-(carboxymethyl)phenyl)-3-phenoxypropanamide]
0.046 | 0.54 | O=C(O)Cc1ccc(NC(=O)C(Cc2ccccc2)NS(=O)(=O)c2ccc(Cl)cc2)cc1 (racemic) [Example 247, (RS)-N-(4-(carboxymethyl)phenyl)-2-(4-chlorobenzenesulfonylamino)-3-phenylpropanamide]
0.029 | 0.17 | O=C(O)CCc1ccc(NC(=O)[C@H](Cc2ccccc2)NS(=O)(=O)c2ccc(Cl)cc2)cc1 [Example 250, (S)-N-(4-(2-carboxyethyl)phenyl)-2-(4-chlorobenzenesulfonylamino)-3-phenylpropanamide]
0.17 | 0.17 | CSCCC(NS(=O)(=O)c1ccc(Cl)cc1)C(=O)Nc1ccc(CC(=O)O)cc1 (racemic) [Example 233, (RS)-N-(4-(carboxymethyl)phenyl)-2-(4-chlorobenzenesulfonylamino)-4-methylthiobutanamide]
2 | 0.31 | O=C(O)Cc1ccc(NC(=O)C(COc2cccnc2)NS(=O)(=O)c2ccc(F)cc2)cc1 (racemic) [Example 123, (RS)-N-(4-(carboxymethyl)phenyl)-2-(4-fluorobenzenesulfonylamino)-3-(pyridin-3-yloxy)propanamide]
0.072 | 0.53 | CCCCC(NS(=O)(=O)c1ccc(Br)cc1)C(=O)Nc1ccc(CC(=O)O)cc1 (racemic) [Example 226, (RS)-2-(4-bromobenzenesulfonylamino)-N-(4-(carboxymethyl)phenyl)hexanamide]
0.13 | 0.17 | CCCC[C@H](NS(=O)(=O)c1ccc(Cl)cc1)C(=O)Nc1ccc(CC(=O)O)cc1 [Example 223, (S)-N-(4-(carboxymethyl)phenyl)-2-(4-chlorobenzenesulfonylamino)hexanamide]
0.1 | 0.53 | O=C(O)Cc1ccc(NC(=O)C(COc2cccc(Cl)c2)NS(=O)(=O)c2ccc(F)cc2)cc1 (racemic) [Example 138, (RS)-N-(4-(carboxymethyl)phenyl)-3-(3-chlorophenoxy)-2-(4-fluorobenzenesulfonylamino)propanamide]
0.005 | 0.051 | O=C(O)CCc1ccc(NC(=O)[C@H](Cc2ccccc2)NS(=O)(=O)c2ccc(Br)cc2)cc1 [Example 254, (S)-2-(4-bromobenzenesulfonylamino)-N-(4-(2-carboxyethyl)phenyl)-3-phenylpropanamide]
0.014 | 0.053 | CSCC[C@H](NS(=O)(=O)c1ccc(Br)cc1)C(=O)Nc1cccc(C(=O)O)c1 [Example 241, (S)-2-(4-bromobenzenesulfonylamino)-N-(3-carboxyphenyl)-4-methylthiobutanamide]
0.052 | 0.17 | CSCC[C@H](NS(=O)(=O)c1ccc(Cl)cc1)C(=O)Nc1ccc(CC(=O)O)cc1 [Example 234, (S)-N-(4-(carboxymethyl)phenyl)-2-(4-chlorobenzenesulfonylamino)-4-methylthiobutanamide]
0.13 | 0.31 | O=C(O)Cc1ccc(NC(=O)C(COc2cccnc2)NS(=O)(=O)c2ccc(Br)cc2)cc1 (racemic) [Example 124, (RS)-2-(4-bromobenzenesulfonylamino)-N-(4-(carboxymethyl)phenyl)-3-(pyridin-3-yloxy)propanamide]
0.017 | 0.17 | O=C(O)Cc1ccc(NC(=O)C(COc2ccccc2)NS(=O)(=O)c2ccc(I)cc2)cc1 (racemic) [Example 149, (RS)-N-(4-(carboxymethyl)phenyl)-2-(4-iodobenzenesulfonylamino)-3-phenoxypropanamide]
0.032 | 0.16 | CCSCCC(NS(=O)(=O)c1ccc(Cl)cc1)C(=O)Nc1ccc(CC(=O)O)cc1 (racemic) [Example 242, (RS)-N-(4-(carboxymethyl)phenyl)-2-(4-chlorobenzenesulfonylamino)-4-ethylthiobutanamide]
0.037 | 1.7 | O=C(O)Cc1ccc(NC(=O)C(COc2ccc(Cl)cc2)NS(=O)(=O)c2ccc(Br)cc2)cc1 (racemic) [Example 143, (RS)-2-(4-bromobenzenesulfonylamino)-N-(4-(carboxymethyl)phenyl)-3-(4-chlorophenoxy) propanamide]
0.69 | 1.7 | O=C(O)Cc1ccc(NC(=O)C(CCOC2CCCCO2)NS(=O)(=O)c2ccc(Cl)cc2)cc1 (racemic) [Example 169, (RS)-N-(4-(carboxymethyl)phenyl)-2-(4-chlorobenzenesulfonylamino)-4-(tetrahydropyran-2-yloxy)butanamide]
1.4 | 5.3 | O=C(O)Cc1ccc(NC(=O)C(COC2CCCCO2)NS(=O)(=O)c2ccc(Cl)c([N+](=O)[O-])c2)cc1 (racemic) [Example 58, (RS)-N-(4-(carboxymethyl)phenyl)-2-(4-chloro-3-nitrobenzenesulfonylamino)-3-(tetrahydropyran-2-yloxy)propanamide]
0.15 | 0.3 | CSCC[C@H](NS(=O)(=O)c1ccc(Cl)cc1)C(=O)Nc1ccc(CCC(=O)O)cc1 [Example 237, (S)-N-(4-(2-carboxyethyl)phenyl)-2-(4-chlorobenzenesulfonylamino)-4-methylthiobutanamide]
